# Measurements from article PMC7904827 (Scientific Reports, 2021).
# Counter-ions that a name gives are not always drawn.
# Columns and labels:
# [1] = ICRF-193 release from the prodrugs during incubation in DMEM (thermomixer, UHPLC-MS/MS); format: in vitro ADME; conditions: 100 µM, 37 °C
# Experimental: All samples were spiked with the internal standards. DMEM or buffer (100 μL) was diluted with an ice-cold methanol/water mixture (20:80, v/v), mixed and analyzed. Plasma (50 μL) was precipitated with ice-cold methanol (1:5, v/v), mixed (20 s) and centrifuged (10 min, 10,000 rpm, 4 °C). NVCM pellets (4.8 × 10^6 cells) were precipitated with ice-cold methanol (250 μL), mixed (20 s), sonicated in a cold ultrasonic bath (75 s), mixed (30 s) and centrifuged (10 min, 10,000 rpm, 4 °C). The supernatants from the plasma and NVCM extractions were filtered (0.22 μm, PVDF) prior to analysis. For assay of the prodrugs, the samples were acidified with formic acid to a final concentration of 0.5%.
# The samples were analyzed using two UHPLC instruments both coupled to a triple quadrupole mass spectrometer. […] Positive ionization mode was used in both methods. The analytical columns tested are characterized in the Supplementary materials.
# The prodrugs (100 μM) were incubated (37 °C) in DMEM in a thermomixer (Thermomixer Comfort, Eppendorf, Germany) under gentle mixing (350 rpm) for 48 h.
# From all of the above described experiments, samples were taken at predefined intervals, treated and immediately analyzed. All experiments were performed in four replicates, and the results are expressed as the mean ± SD.
# [2] = tested on: neonatal ventricular cardiomyocytes (NVCMs); experiment: In vitro cardioprotection bioassay against daunorubicin toxicity (LDH release); format: cell-based, rat; conditions: 3 h preincubation, DAU 1.2 µM, LDH release after 48 h
# Experimental: NVCMs were isolated in-house from 1- to 3-day-old Wistar rats as described previously. The use of animals and experimental protocols were approved by Charles University, Faculty of Pharmacy Animal Welfare Committee. All experiments were performed in accordance with Directive 2010/63/EU on the Protection of Animals Used for Scientific Purposes and in compliance with Animal Research: Reporting of In Vivo Experiments (ARRIVE) guidelines. Newly isolated cardiomyocytes were left for 40 h to form a monolayer of spontaneously beating cardiomyocytes in seeding medium (DMEM/F12 supplemented with 10% HS, 5% FBS, 4% PYR and 1% P/S), which was then replaced with culture medium (DMEM/F12 supplemented with 5% FBS, 4% PYR and 1% P/S). The medium was replaced again after 24 h for new culture medium.
# (§1) After 3 h, DAU solution (1.2 µM) was added to the media. After another 3 h, the medium was replaced with new (drug-free) exposure medium, and the cardiomyocytes were then kept until the end of the experiment. In addition to cytoprotective properties, the toxicity of the studied agent was also examined; this experiment was performed as described above with only the DAU addition step omitted.
# (§2) Forty-five hours after the last medium exchange, a sample of medium was taken from each well to assess lactate dehydrogenase (LDH) activity[27]–[29]. For details, see the Supplementary material.
# (§3) 1.5 LDH activity evaluation
# (§4) The control wells were treated with lysis buffer (0.1 M potassium phosphate, 1% Triton
# (§5) X-100, 1 mM DTT, 2 mM EDTA; pH 7.8; 15 min; room temperature) to measure the total
# (§6) cellular LDH level (sum of the activity in the control medium and the lysate). The activity of
# (§7) LDH was assayed in Tris-HCl buffer (pH 8.9) containing 35 mM sodium lactate and 5 mM
# (§8) NAD+. The rate of NAD+ reduction was monitored spectrophotometrically at 340 nm for 2 min.
# (§9) The slope of the linear region and molar absorption coefficient e = 6.22*10 3 M/cm were used
# (§10) to calculate the LDH activity, and the data were expressed as a percentage of total L DH activity. […]
# [3] = Process stability in untreated plasma; format: in vitro ADME, rabbit; conditions: within 10 min
# Experimental: Linearity was tested within the concentration range of 0.2 – 100 μM for all compounds in DMEM, the buffer and plasma and 10-100 pmol/106cells in NVCMs (method I). For method II, the concentration ranges 0.01-15 μM and 0.01-1 μM were used for determination of ICRF-193 and ICRF-193met in plasma, respectively. Unweighted and weighted (1/x and 1/x2) linear regression was applied to obtain the best fitting calibration model. […]
# Stability of the analytes was examined at low and high concentrations. Process s tability (n=3) in plasma was tested for 20 min at either laboratory temperature (23 °C) or on ice (4 °C, only for GK-667). Post-preparation stability was examined for 8 to 10 h in an autosampler (8 °C, n=3) for all treated matrices. […]
# [4] = tested on: neonatal ventricular cardiomyocytes (NVCMs); experiment: Toxicity of the prodrugs alone in NVCMs (LDH release); format: cell-based, rat
# Experimental: as §1, §2, §3, §4, §5, §6, §7, §8, §9, §10
smiles,measurement,setting,value
"C[C@H]([C@H](C)N1CC(=O)N(COC(=O)CN)C(=O)C1)N1CC(=O)N(COC(=O)CN)C(=O)C1 [GK-667, meso-2,3-bis(4-(2-aminoacetoxymethyl)-3,5-dioxopiperazin-1-yl)butane tetrahydrochloride]",conversion to the inactive metabolite ICRF-193met,"[1]; AUC0–3 h and AUC0–48 h, compared with the other prodrugs",lowest conversion
same,AUC0–3 h of ICRF-193 concentrations,[1]; GK-667 compared with GK-678,no statistically significant differences
same,AUC0–48 h of ICRF-193 concentrations,[1]; GK-667 compared with GK-678,significantly higher
same,lowest concentration with significant protection against DAU-induced toxicity,[2],matched the results of ICRF-193
same,GK-667 decomposed,[3]; plasma samples at room temperature (23 °C),~50%
same,GK-667 decomposed,[3]; plasma samples on ice,less than 6%
same,cytotoxicity of the prodrug alone towards NVCMs,"[4]; LDH release, without DAU",nontoxic on its own
same,"LDH release, statistical significance compared to control","[4]; prodrug alone 1–100 µM, NVCMs, n.s. or c in Fig. S2",n.s.
